From patent US12145917B2, “Crystalline forms of a compound for treating or preventing gout or hyperuricemia” (Arthrosi Therapeutics, Inc., priority 2019, dated 2024)

Key:
[1] = target: T1, human URAT1 uptake transporter (Homo sapiens, UniProt Q96S37); test: In vitro interaction study with the human URAT1 uptake transporter (uric acid uptake in MDCKII cells); format: cell-based; details: MDCK-II, at a concentration of 10 μM, read-out: Inhibition of URAT1 mediated uric acid accumulation
T1 construct: expressed in transfected cells
T1 sequence (Q96S37 1-553): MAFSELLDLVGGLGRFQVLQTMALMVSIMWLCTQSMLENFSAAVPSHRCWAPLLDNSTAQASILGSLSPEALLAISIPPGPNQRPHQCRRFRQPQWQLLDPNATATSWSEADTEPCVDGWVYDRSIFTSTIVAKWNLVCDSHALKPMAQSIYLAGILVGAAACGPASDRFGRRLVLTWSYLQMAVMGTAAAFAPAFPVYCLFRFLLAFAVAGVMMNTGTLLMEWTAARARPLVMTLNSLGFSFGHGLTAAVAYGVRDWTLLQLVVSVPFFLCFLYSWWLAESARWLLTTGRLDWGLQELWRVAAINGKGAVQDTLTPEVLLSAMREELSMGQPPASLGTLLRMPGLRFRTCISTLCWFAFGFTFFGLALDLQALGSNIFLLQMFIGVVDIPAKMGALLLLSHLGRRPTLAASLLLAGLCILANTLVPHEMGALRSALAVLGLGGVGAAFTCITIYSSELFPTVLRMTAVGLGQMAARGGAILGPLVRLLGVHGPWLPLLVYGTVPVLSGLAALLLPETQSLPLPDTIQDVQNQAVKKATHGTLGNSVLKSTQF
Experimental: Uptake experiments were performed using MDCKII cells stably expressing the human URAT1 uptake transporter. Cells were cultured at 37±1° C. in an atmosphere of 95:5 air:CO2 and were plated onto standard 96-well tissue culture plates at the cell number described in Table 5.
Radiolabeled probe substrate transport was determined by measuring an aliquot (35 μL) from each well for liquid scintillation counting.

[2] = cited from earlier work
[3] = Stability in human microsomes; format: in vitro ADME
[4] = target: CYP2C9 (Homo sapiens, UniProt P11712); test: CYP2C9 metabolic pathway / metabolite formation; format: in vitro ADME
CYP2C9, sequence (P11712 whole entry): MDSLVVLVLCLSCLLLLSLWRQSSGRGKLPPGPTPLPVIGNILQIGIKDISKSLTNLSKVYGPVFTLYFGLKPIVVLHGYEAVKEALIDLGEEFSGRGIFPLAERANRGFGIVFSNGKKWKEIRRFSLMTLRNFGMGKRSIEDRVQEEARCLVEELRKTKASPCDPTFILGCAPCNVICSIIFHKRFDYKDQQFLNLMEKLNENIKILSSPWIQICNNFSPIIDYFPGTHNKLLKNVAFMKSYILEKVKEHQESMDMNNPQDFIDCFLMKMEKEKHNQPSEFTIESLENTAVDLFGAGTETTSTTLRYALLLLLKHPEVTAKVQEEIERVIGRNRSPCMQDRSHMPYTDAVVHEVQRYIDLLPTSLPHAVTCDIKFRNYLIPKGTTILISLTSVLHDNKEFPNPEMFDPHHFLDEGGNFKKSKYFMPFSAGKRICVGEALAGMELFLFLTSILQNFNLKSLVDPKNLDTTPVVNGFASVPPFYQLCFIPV

[5] = Dynamic vapor sorption (DVS); format: physicochemical; details: for Post-GVS analysis by XRPD (change of form): after DVS cycle 0-90-0% RH; for Moisture uptake (DVS): between 0-90% RH
Experimental: DVS studies were performed using a DVS Intrinsic (SMS, UK) or IGASORP (Hiden, UK). 10 to 50 mg of compound was transferred into the DVS and the weight change recorded with respect to a varying atmospheric humidity at 25° C. using the following parameters:
Drying at 40° C. until dm/dt<±0.002%/min
Min time: 30 min, Max time: 120 min (for IGASORP)
Characterize the sample after the DVS experiment by XRPD

In the case of `CCc1oc2ccccc2c1C(=O)c1cc(Br)c(O)c(Br)c1` [Benzbromarone], the inhibition at 10 µM [1] is given as 98%, the “Serum uric acid (sUA) level reached” value ([2]; chronic therapy) is given as < 6 mg/dL and the Hepatotoxicity ([2]; in certain patients) is given as “associated with hepatotoxicity”.
With `[2H]c1c([2H])c([2H])c2c(C(=O)c3cc(Br)c(O)c(Br)c3)c(C(C)O)oc2c1[2H]` (centres unmarked) [Compound 1, (3,5-dibromo-4-hydroxyphenyl)(2-(1-hydroxyethyl)benzofuran-3-yl-4,5,6,7-d4)methanone] the inhibition at 10 µM [1] was 100%, the “Stability in human microsomes compared with benzbromarone” value [3] was “more stable than benzbromarone in human microsomes” and the “Formation of 6-OH benzbromarone and 5,6-di-OH benzbromarone metabolites” value [4] was “not formed”. For the same compound, the CYP2C9 metabolic pathway ([4]; compared with benzbromarone) was “significantly reduced”.
For `[2H]c1c([2H])c([2H])c2c(C(=O)c3cc(Br)c(O)c(Br)c3)c(C(C)O)oc2c1[2H]` (centres unmarked) [Form 1, (3,5-dibromo-4-hydroxyphenyl)(2-(1-hydroxyethyl)benzofuran-3-yl-4,5,6,7-d4)methanone], the “RH at which the dehydrated form converted to hydrated form” value ([5]; DVS, 25° C.) was ≥ 20%.
In the case of `[2H]c1c([2H])c([2H])c2c(C(=O)c3cc(Br)c(O)c(Br)c3)c(C(C)O)oc2c1[2H]` (centres unmarked) [Form 2, (3,5-dibromo-4-hydroxyphenyl)(2-(1-hydroxyethyl)benzofuran-3-yl-4,5,6,7-d4)methanone], the Hygroscopicity ([5]; DVS, 25° C.) is reported as “non-hygroscopic”, the “Post-GVS analysis by XRPD (change of form)” value [5] is reported as “no change” and the “Moisture uptake (DVS)” value ([5]; 25° C.) is reported as 0.08%.
In the case of `[2H]c1c([2H])c([2H])c2c(C(=O)c3cc(Br)c(O)c(Br)c3)c(C(C)O)oc2c1[2H]` (centres unmarked) [Form 3, (3,5-dibromo-4-hydroxyphenyl)(2-(1-hydroxyethyl)benzofuran-3-yl-4,5,6,7-d4)methanone], the Hygroscopicity ([5]; DVS, 25° C.) is reported as “non-hygroscopic”, the “Post-GVS analysis by XRPD (change of form)” value [5] is reported as “no change” and the “Moisture uptake (DVS)” value ([5]; 25° C.) is reported as 0.04%.
